# In PubChem BioAssay AID2060887 (Molecular Pharmacology Branch, DTP, NCI, 2025):
# pIC50: −log10 of the molar value.
# System: 782815-120-R-J1-PDC complex spheroid viability
# Experiment: Anticancer human tumor 782815-120-R-J1-PDC patient-derived colon adenocarcinoma cell line growth inhibition [RAS]
# Settings: for pIC50: curve of first compound; for viability, T/C: stronger effect = lower value
# Outline: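 Agents were tested in combination matrices in half-log decrements from a top concentration at or near clinical Cmax (10 microM if undetermined). Targets were multi-cell spheroids of tumour lines plus HUVEC and MSC stromal cells.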
# 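Note: spheroids exposed to compounds for 7 days before reading.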
# 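Throughout, for viability, T/C: 100% = DMSO vehicle control viability.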
smiles,measurement,setting,value
CC1(O)CCCC1n1c(=O)c(C(F)F)cc2cnc(NC3CCN(S(C)(=O)=O)CC3)nc21 (stereo unspecified) + CCn1c(-c2cc(N3CCN(C)CC3)cnc2C(C)OC)c2c3cc(ccc31)-c1csc(n1)CC(NC(=O)C1CC1C)C(=O)N1CCCC(N1)C(=O)OCC(C)(C)C2,pIC50,second compound 0.000949 µM,5.48
same,pIC50,second compound 0.003 µM,> 7.50
same,pIC50,second compound 0.00949 µM,> 7.50
same,pIC50,second compound 0.03 µM,> 7.50
same,pIC50,second compound 0.0949 µM,> 7.50
same,pIC50,second compound 0.3 µM,> 7.50
same,"viability, T/C","second compound 0.000949 µM, first compound 0.0316 µM",58.6%
same,"viability, T/C","second compound 0.000949 µM, first compound 0.1 µM",48.5%
same,"viability, T/C","second compound 0.000949 µM, first compound 0.316 µM",45%
same,"viability, T/C","second compound 0.000949 µM, first compound 1 µM",53.4%
same,"viability, T/C","second compound 0.000949 µM, first compound 3.16 µM",52.9%
same,"viability, T/C","second compound 0.000949 µM, first compound 10 µM",17%
same,"viability, T/C","second compound 0.003 µM, first compound 0.0316 µM",40.2%
same,"viability, T/C","second compound 0.003 µM, first compound 0.1 µM",45.4%
same,"viability, T/C","second compound 0.003 µM, first compound 0.316 µM",41.3%
same,"viability, T/C","second compound 0.003 µM, first compound 1 µM",41.8%
same,"viability, T/C","second compound 0.003 µM, first compound 3.16 µM",39.1%
same,"viability, T/C","second compound 0.003 µM, first compound 10 µM",15.1%
same,"viability, T/C","second compound 0.00949 µM, first compound 0.0316 µM",26.1%
same,"viability, T/C","second compound 0.00949 µM, first compound 0.1 µM",28.3%
same,"viability, T/C","second compound 0.00949 µM, first compound 0.316 µM",22.4%
same,"viability, T/C","second compound 0.00949 µM, first compound 1 µM",26.3%
same,"viability, T/C","second compound 0.00949 µM, first compound 3.16 µM",30%
same,"viability, T/C","second compound 0.00949 µM, first compound 10 µM",8.61%
same,"viability, T/C","second compound 0.03 µM, first compound 0.0316 µM",16.6%
same,"viability, T/C","second compound 0.03 µM, first compound 0.1 µM",17.6%
same,"viability, T/C","second compound 0.03 µM, first compound 0.316 µM",17.4%
same,"viability, T/C","second compound 0.03 µM, first compound 1 µM",15.8%
same,"viability, T/C","second compound 0.03 µM, first compound 3.16 µM",22.4%
same,"viability, T/C","second compound 0.03 µM, first compound 10 µM",4.67%
same,"viability, T/C","second compound 0.0949 µM, first compound 0.0316 µM",12.4%
same,"viability, T/C","second compound 0.0949 µM, first compound 0.1 µM",13.8%
same,"viability, T/C","second compound 0.0949 µM, first compound 0.316 µM",13.6%
same,"viability, T/C","second compound 0.0949 µM, first compound 1 µM",13.5%
same,"viability, T/C","second compound 0.0949 µM, first compound 3.16 µM",18.5%
same,"viability, T/C","second compound 0.0949 µM, first compound 10 µM",5.05%
same,"viability, T/C","second compound 0.3 µM, first compound 0.0316 µM",14.8%
same,"viability, T/C","second compound 0.3 µM, first compound 0.1 µM",12.7%
same,"viability, T/C","second compound 0.3 µM, first compound 0.316 µM",13.9%
same,"viability, T/C","second compound 0.3 µM, first compound 1 µM",15%
same,"viability, T/C","second compound 0.3 µM, first compound 3.16 µM",18.2%
same,"viability, T/C","second compound 0.3 µM, first compound 10 µM",4.68%
CC(Nc1ccc2c(c1)OCCn1cc(N3C(=O)OCC3C(F)F)nc1-2)C(N)=O (stereo unspecified) + C#Cc1c(F)ccc2cc(O)cc(-c3ncc4c(N5CC6CCC(C5)N6)nc(OCC56CCCN5CC(F)C6)nc4c3F)c12,pIC50,second compound 0.0316 µM,< 5.00
same,pIC50,second compound 0.1 µM,< 5.00
same,pIC50,second compound 0.316 µM,< 5.00
same,pIC50,second compound 1 µM,< 5.00
same,pIC50,second compound 3.16 µM,< 5.00
same,pIC50,second compound 10 µM,< 5.00
same,"viability, T/C","second compound 0.0316 µM, first compound 0.0316 µM",94.1%
same,"viability, T/C","second compound 0.0316 µM, first compound 0.1 µM",98.6%
same,"viability, T/C","second compound 0.0316 µM, first compound 0.316 µM",99.9%
same,"viability, T/C","second compound 0.0316 µM, first compound 1 µM",89.7%
same,"viability, T/C","second compound 0.0316 µM, first compound 3.16 µM",96.6%
same,"viability, T/C","second compound 0.0316 µM, first compound 10 µM",91.8%
same,"viability, T/C","second compound 0.1 µM, first compound 0.0316 µM",95.7%
same,"viability, T/C","second compound 0.1 µM, first compound 0.1 µM",102%
same,"viability, T/C","second compound 0.1 µM, first compound 0.316 µM",92.9%
same,"viability, T/C","second compound 0.1 µM, first compound 1 µM",90%
same,"viability, T/C","second compound 0.1 µM, first compound 3.16 µM",100%
same,"viability, T/C","second compound 0.1 µM, first compound 10 µM",94.1%
same,"viability, T/C","second compound 0.316 µM, first compound 0.0316 µM",99%
same,"viability, T/C","second compound 0.316 µM, first compound 0.1 µM",99.2%
same,"viability, T/C","second compound 0.316 µM, first compound 0.316 µM",87.9%
same,"viability, T/C","second compound 0.316 µM, first compound 1 µM",99.8%
same,"viability, T/C","second compound 0.316 µM, first compound 3.16 µM",101%
same,"viability, T/C","second compound 0.316 µM, first compound 10 µM",94.6%
same,"viability, T/C","second compound 1 µM, first compound 0.0316 µM",106%
same,"viability, T/C","second compound 1 µM, first compound 0.1 µM",101%
same,"viability, T/C","second compound 1 µM, first compound 0.316 µM",89%
same,"viability, T/C","second compound 1 µM, first compound 1 µM",97.2%
same,"viability, T/C","second compound 1 µM, first compound 3.16 µM",87.7%
same,"viability, T/C","second compound 1 µM, first compound 10 µM",103%
same,"viability, T/C","second compound 3.16 µM, first compound 0.0316 µM",111%
same,"viability, T/C","second compound 3.16 µM, first compound 0.1 µM",92.4%
same,"viability, T/C","second compound 3.16 µM, first compound 0.316 µM",97.8%
same,"viability, T/C","second compound 3.16 µM, first compound 1 µM",87.4%
same,"viability, T/C","second compound 3.16 µM, first compound 3.16 µM",97.5%
same,"viability, T/C","second compound 3.16 µM, first compound 10 µM",95.4%
same,"viability, T/C","second compound 10 µM, first compound 0.0316 µM",102%
same,"viability, T/C","second compound 10 µM, first compound 0.1 µM",95.9%
same,"viability, T/C","second compound 10 µM, first compound 0.316 µM",79%
same,"viability, T/C","second compound 10 µM, first compound 1 µM",92.6%
same,"viability, T/C","second compound 10 µM, first compound 3.16 µM",89.1%
same,"viability, T/C","second compound 10 µM, first compound 10 µM",81.2%
CCc1c2c(nc3ccc(O)cc13)-c1cc3c(c(=O)n1C2)COC(=O)[C@]3(O)CC + CCn1c(-c2cccnc2C(C)OC)c2c3cc(ccc31)N1CCOC(CC(NC(=O)C(C(C)C)N(C)C(=O)C3(F)CCN(C(=O)C#CC(C)(C)N(C)C)CC3)C(=O)N3CCCC(N3)C(=O)OCC(C)(C)C2)C1,pIC50,second compound 0.000949 µM,8.44
same,pIC50,second compound 0.003 µM,8.40
same,pIC50,second compound 0.00949 µM,8.40
same,pIC50,second compound 0.03 µM,8.54
same,pIC50,second compound 0.0949 µM,8.43
same,pIC50,second compound 0.3 µM,8.49
same,"viability, T/C","second compound 0.000949 µM, first compound 0.000949 µM",84%
same,"viability, T/C","second compound 0.000949 µM, first compound 0.003 µM",56.1%
same,"viability, T/C","second compound 0.000949 µM, first compound 0.00949 µM",22.1%
same,"viability, T/C","second compound 0.000949 µM, first compound 0.03 µM",8.78%
same,"viability, T/C","second compound 0.000949 µM, first compound 0.0949 µM",2.94%
same,"viability, T/C","second compound 0.000949 µM, first compound 0.3 µM",1.62%
same,"viability, T/C","second compound 0.003 µM, first compound 0.000949 µM",89.9%
same,"viability, T/C","second compound 0.003 µM, first compound 0.003 µM",59.1%
same,"viability, T/C","second compound 0.003 µM, first compound 0.00949 µM",21.3%
same,"viability, T/C","second compound 0.003 µM, first compound 0.03 µM",9.28%
same,"viability, T/C","second compound 0.003 µM, first compound 0.0949 µM",4.83%
same,"viability, T/C","second compound 0.003 µM, first compound 0.3 µM",1.63%
same,"viability, T/C","second compound 0.00949 µM, first compound 0.000949 µM",86.5%
same,"viability, T/C","second compound 0.00949 µM, first compound 0.003 µM",59.2%
same,"viability, T/C","second compound 0.00949 µM, first compound 0.00949 µM",22.6%
same,"viability, T/C","second compound 0.00949 µM, first compound 0.03 µM",11.7%
same,"viability, T/C","second compound 0.00949 µM, first compound 0.0949 µM",3.57%
same,"viability, T/C","second compound 0.00949 µM, first compound 0.3 µM",1.64%
same,"viability, T/C","second compound 0.03 µM, first compound 0.000949 µM",91.9%
same,"viability, T/C","second compound 0.03 µM, first compound 0.003 µM",49.3%
same,"viability, T/C","second compound 0.03 µM, first compound 0.00949 µM",19%
same,"viability, T/C","second compound 0.03 µM, first compound 0.03 µM",10.1%
same,"viability, T/C","second compound 0.03 µM, first compound 0.0949 µM",4.83%
same,"viability, T/C","second compound 0.03 µM, first compound 0.3 µM",1.53%
same,"viability, T/C","second compound 0.0949 µM, first compound 0.000949 µM",82.5%
same,"viability, T/C","second compound 0.0949 µM, first compound 0.003 µM",57%
same,"viability, T/C","second compound 0.0949 µM, first compound 0.00949 µM",18.8%
same,"viability, T/C","second compound 0.0949 µM, first compound 0.03 µM",8.68%
same,"viability, T/C","second compound 0.0949 µM, first compound 0.0949 µM",5.21%
same,"viability, T/C","second compound 0.0949 µM, first compound 0.3 µM",1.73%
same,"viability, T/C","second compound 0.3 µM, first compound 0.000949 µM",86.1%
same,"viability, T/C","second compound 0.3 µM, first compound 0.003 µM",53%
same,"viability, T/C","second compound 0.3 µM, first compound 0.00949 µM",15.4%
same,"viability, T/C","second compound 0.3 µM, first compound 0.03 µM",8.17%
same,"viability, T/C","second compound 0.3 µM, first compound 0.0949 µM",2.87%
same,"viability, T/C","second compound 0.3 µM, first compound 0.3 µM",1.16%
